From patent US8476197B2, “Aminopropenoates as fungicides” (priority 2009, dated 2013)
Marks after values point to notes of the source that are not given here.

conditions: pH 2.3

Row | Compound | Log P
1 | CCOC(=O)C(C#N)=C(NC(C)C(C)C)c1cccnc1-c1ccc(OC(F)(F)F)cc1 (centres unmarked) [Compound 1586] | 4.39
2 | CCOC(=O)C(C#N)=C(NC1CC1)c1cccnc1Cl [Compound 764] | 2.5

same assay, conditions: pH 2.7

Row | Compound | Log P
3 | CCOC(=O)C(C#N)=C(NC(C)c1nc(C(C)C)no1)c1cc(Cl)ncc1Cl (racemic) [Compound 253] | 2.2[a]
4 | CCOC(=O)C(C#N)=C(NC(C)c1nccs1)c1ccnc(C(F)(F)F)c1Cl (centres unmarked) [Compound 1626] | 3.46^[a]
5 | COC(=O)C(C#N)=C(NC(C)CN(C)C)c1sc(C)nc1C(F)(F)F (centres unmarked) [Compound 630] | 1.17^[a]
6 | COC(=O)C(C#N)=C(NC(C)CC(C)C)c1sc(C)nc1C(F)(F)F (racemic) [Compound 782] | 3.9^[a]
7 | COC(=O)C(C#N)=C(NC1CCC(C)CC1)c1cccnc1Cl (centres unmarked) [Compound 1076] | 3.37^[a]
8 | CCOC(=O)C(C#N)=C(NC(C)c1cc(Cl)cc(C)n1)c1cccnc1Cl (centres unmarked) [Compound 1446] | 3.4^[a]
9 | CCOC(=O)C(C#N)=C(NC(C)C1CC1)c1cnn(C)c1C(F)F (centres unmarked) [Compound 1303] | 2.98^[a]
10 | COC(=O)C(C#N)=C(NCc1nccs1)c1cn(C)nc1C(F)F [Compound 67] | 1.72^[a]
11 | CCOC(=O)C(C#N)=C(NC1CSC1)c1cccnc1Cl [Compound 1374] | 2.64^[a]
12 | CCOC(=O)C(C#N)=C(NC(C)C(C)(C)C)c1cccnc1Cl (centres unmarked) [Compound 924] | 3.6^[a]
13 | CCOC(=O)C(C#N)=C(NC(C)c1nccs1)c1conc1C (centres unmarked) [Compound 77] | 2.4^[a]
14 | CCOC(=O)C(C#N)=C(NC(C)c1ccccn1)c1cn(C)nc1C(Cl)Cl (racemic) [Compound 1565] | 2.7^[a]
15 | CC(C)C(C)NC(=C(C#N)C(=O)N1CCCC1)c1cccnc1Cl (centres unmarked) [Compound 1491] | 3.02^[a]
16 | COC(=O)C(C#N)=C(NC1CCCC1)c1cccnc1Cl [Compound 763] | 2.61^[a]
17 | CCOC(=O)C(C#N)=C(NC1(COc2ccccc2)CC1)c1cccnc1Cl [Compound 560] | 3.6^[a]
18 | CCOC(=O)C(C#N)=C(NC(C)c1sc(C)nc1C)c1sccc1Br (centres unmarked) [Compound 215] | 3.23^[a]
19 | CCOC(=O)C(C#N)=C(NC(COC)COC)c1cn(C)nc1C(F)F [Compound 1341] | 2.42^[a]
20 | C#CC(C)(C)NC(=C(C#N)C(=O)OCC)c1cn(C)cc1C(F)(F)F [Compound 1038] | 3.21^[a]
21 | C=CCNC(=O)C(C#N)=C(NC(C)C(C)C)c1cn(C)nc1C(F)F (centres unmarked) [Compound 1007] | 2.9^[a]
22 | CC#CC(C)NC(=C(C#N)C(=O)OC)c1cccnc1Cl (centres unmarked) [Compound 1051] | 2.5^[a]
23 | COC(=O)C(C#N)=C(NC(c1cccc(Cl)c1)C1CC1)c1cccnc1Cl (centres unmarked) [Compound 390] | 2.93^[a]
24 | CCOC(=O)C(C#N)=C(NC(C)CCCC(C)C)c1sccc1Br (centres unmarked) [Compound 928] | 5.36^[a]
25 | CCOC(=O)C(C#N)=C(NC1CCC1)c1cc(Cl)ncc1Cl [Compound 797] | 3.55^[a]
26 | CCOC(=O)C(C#N)=C(NC(C)C(=O)NC)c1ccnc(Cl)c1F (centres unmarked) [Compound 1324] | 2.15^[a]
27 | CCOC(=O)C(C#N)=C(NC(C)C(C)C)c1cc(Cl)ncc1Cl (centres unmarked) [Compound 977] | 3.96^[a]

Row | Compound | Log P
28 | CCOC(=O)C(C#N)=C(NC(C)COCc1ccccc1F)c1cccnc1Cl (centres unmarked) [Compound 1163] | 3.69^[a]
29 | CCOC(=O)C(C#N)=C(NC(C)C(C)C)c1ccnc(Br)c1Br (centres unmarked) [Compound 1410] | 3.96^[a]
30 | CCOC(=O)C(C#N)=C(NC1CCC1)c1scnc1Cl [Compound 1465] | 3^[a]
31 | CCOC(=O)C(C#N)=C(NC(C)c1nccs1)c1c(C(F)(F)F)nn(C)c1Cl (centres unmarked) [Compound 311] | 3.2^[a]
32 | C#CC(C)(C)NC(=C(C#N)C(=O)OCC)c1conc1C [Compound 1030] | 2.66^[a]
33 | CCOC(=O)C(C#N)=C(NC(C)C(N)=O)c1ccsc1Br (centres unmarked) [Compound 628] | 1.9^[a]
34 | COC(=O)C(C#N)=C(NC1CC1F)c1cccnc1Cl (centres unmarked) [Compound 759] | 1.87^[a]
35 | COC(=O)C(C#N)=C(NC(C(=O)OC)C(C)C)c1sc(C)nc1C(F)(F)F (centres unmarked) [Compound 667] | 3.29^[a]
36 | CCNC(=O)C(C#N)=C(NC(C)C(C)C)c1ccnc(Cl)c1F (centres unmarked) [Compound 1316] | 3.44^[a]
37 | CCOC(=O)C(C#N)=C(NC(C(=O)OC)C(C)C)c1cn(C)nc1C(F)(F)F (centres unmarked) [Compound 713] | 3.09^[a]
38 | COC(=O)C(C#N)=C(Nc1ccc(C(C)C)cc1)c1sc(C)nc1C(F)(F)F [Compound 487] | 4.14^[a]
39 | CCNC(=O)C(C#N)=C(NCC(C)c1nccs1)c1cccnc1Cl (centres unmarked) [Compound 1120] | 2.14^[a]
40 | CCOC(=O)C(C#N)=C(NC(Cc1ncccc1C)C(F)(F)F)c1cn(C)nc1C(F)F (centres unmarked) [Compound 1223] | 2.94^[a]
41 | CCOC(=O)C(C#N)=C(NC(C(=O)OC)C(C)C)c1cn(C)nc1OC (centres unmarked) [Compound 711] | 2.71^[a]
42 | COC(=O)C(C#N)=C(NC(C)c1cccnc1)c1cccnc1Cl (centres unmarked) [Compound 109] | 0.82^[a]
43 | CCOC(=O)C(C#N)=C(NC(c1cncnc1C)C(C)C)c1cccnc1Cl (racemic) [Compound 1538] | 2.28^[a]
44 | CCOC(=O)C(C#N)=C(NC(C)C1CC1)c1sccc1C(F)(F)F (centres unmarked) [Compound 883] | 3.83^[a]
45 | CCOC(=O)C(C#N)=C(NC(C)c1nc(C(C)C)no1)c1cccnc1Cl (mixture of isomers) [Compound 282] | 3.2^[a]
46 | CCC(NC(=C(C#N)C(=O)OC)c1cccnc1Cl)c1ccccc1OC (centres unmarked) [Compound 391] | 3.15^[a]
47 | CCOC(=O)C1(NC(=C(C#N)C(=O)OC)c2cccnc2Cl)CC1 [Compound 623] | 1.66^[a]
48 | C#CC(C)(C)NC(=C(C#N)C(=O)OCC)c1cn(C)nc1C(F)(F)F [Compound 1031] | 3.02^[a]
49 | CCOC(=O)C(C#N)=C(NC(C)CN)c1ncc(C(F)(F)F)cc1Cl (racemic) [Compound 589] | 1.59^[a]
50 | COC(=O)C(C#N)=C(NC(c1cc2ccccc2s1)C(F)(F)F)c1cn(C)nc1C(F)F (racemic) [Compound 60] | 3.83^[a]
51 | CCOC(=O)C(C#N)=C(NC(C)C1CC=CCC1)c1cccnc1Cl (centres unmarked) [Compound 760] | 3.9^[a]
52 | CCOC(=O)C(C#N)=C(NC(C)C(C)C)c1ccnc(SC)c1Cl (centres unmarked) [Compound 1401] | 4.44^[a]

same assay, conditions: pH 7.5

Row | Compound | Log P
53 | CC(C)COC(=O)C(C#N)=C(NC(C)c1nccs1)c1cccnc1Cl (centres unmarked) [Compound 28] | 3.13
54 | CCOC(=O)C(C#N)=C(NC(C)C(C)C)c1cccnc1-c1ccc(OC(F)(F)F)cc1 (centres unmarked) [Compound 1586] | 4.41
55 | CCOC(=O)C(C#N)=C(NC(C)Cn1nc(C(F)(F)C(F)(F)F)nc1SC)c1cccnc1Cl (centres unmarked) [Compound 127] | 3.66
56 | CCOC(=O)C(C#N)=C(NC1CC1)c1cccnc1Cl [Compound 764] | 2.36
